Experimental data from patent publication US11267795B2, “Crystalline PPAR-delta agonist” (Reneo Pharmaceuticals, Inc., priority 2020, dated 2022).
Marks after values point to notes of the source that are not given here.

What was measured:
[1] = Gravimetric Vapor Sorption (GVS) with XRPD re-analysis; assay type: physicochemical; conditions: for Reversible Water Uptake between 0-90% RH: GVS, 25° C.; for Solid State Form After GVS (XRPD): after isotherm experiment at 90% RH and 25° C.
Experimental: Sorption isotherms were obtained using a SMS DVS Intrinsic moisture sorption analyzer, controlled by DVS Intrinsic Control software. The sample temperature was maintained at 25° C. by the instrument controls. The humidity was controlled by mixing streams of dry and wet nitrogen, with a total flow rate of 200 ml/min. The relative humidity was measured by a calibrated Rotronic probe (dynamic range of 1.0-100% RH), located near the sample. The weight change, (mass relaxation) of the sample as a function of % RH was constantly monitored by a microbalance (accuracy ±0.005 mg).
Typically, 5-30 mg of sample was placed in a tared mesh stainless steel basket under ambient conditions. The sample was loaded and unloaded at 40% RH and 25° C. (typical room conditions). A moisture sorption isotherm was performed as outlined below (2 scans per complete cycle). The standard isotherm was performed at 25° C. at 10% RH intervals over a 0-90% RH range. Typically, a double cycle (4 scans) was carried out. Data analysis was carried out within Microsoft Excel using the DVS Analysis Suite.
The method for SMS DVS Intrinsic experiments is outlined in the following table:
Reversible water uptake for the crystalline forms and patterns as determined by Gravimetric Vapor Sorption (GVS) are as described in the following table:
The samples were recovered after completion of the isotherm experiment at […] and 25° C. and re-analyzed by XRPD.

[2] = Stability of solid forms on drying, vacuum or standing (XRPD); assay type: physicochemical
Experimental: Crystalline Hydrate Form 2 of Compound II was portioned into two and half was placed in the vacuum oven at RT. After 24 h the sample was analyzed by XRPD. Some small differences between the XRPD pattern and the Form 2 reference were noted. After 4 days in the vacuum oven complete conversion was observed.

[3] = Stability of solid state forms under static storage, re-analysed by XRPD; assay type: physicochemical
Experimental: Crystalline Form 1 of Compound II (4 g) was placed in a crystallization dish and stored in a stability chamber at 25° C./97% RH. XRPD analysis was regularly performed to verify the conversion to Form 2. Complete conversion was observed after 4 weeks at 25° C./97% RH.
Samples were assessed for stability under ambient or static storage conditions of 25° C./97% RH and 40° C./75% RH for 7 or 10 days. The samples were then re-analyzed by XRPD.
Results of the subsequent XRPD analysis for the crystalline forms are described in the following table: […]

mice = conditions: cited from earlier work
[4] = Variable temperature XRPD (heating); assay type: physicochemical; conditions: heating to 110° C.
Experimental: For variable temperature (VT-XRPD) experiments the samples were prepared and analyzed in an Anton Paar chromed sample holder. A heating/cooling rate of 10° C./min was used with a 2 min isothermal hold before the measurement started. The measurement parameters are as per the standard screening data collection method (detailed above). Measurements were taken at the following temperatures: […]

| Reversible Water Uptake between 0-90% RH [1] | Solid State Form After GVS (XRPD) [1] | solid form stability on drying [2] | solid state form by XRPD after storage ([3]; 25° C./97% RH/7 days) | solid state form by XRPD after storage ([3]; 40° C./75% RH/7 days) | SMILES | also measured |
| --- | --- | --- | --- | --- | --- | --- |
| ~11% | Form 1 | converts to Form 1 | – | – | Cc1cc(OC/C=C(/c2ccc(F)cc2)c2ccc(C#CCN3CCOCC3)cc2)ccc1OCC(=O)[O-].[Na+] [Form 5, sodium (E)-2-(4-((3-(4-fluorophenyl)-3-(4-(3-morpholinoprop-1-yn-1-yl)phenyl)allyl)oxy)-2-methylphenoxy)acetate] | – |
| ~13.0% † | Unchanged (Form 1) | – | Form 2 | Unchanged (Form 1) | Cc1cc(OC/C=C(/c2ccc(F)cc2)c2ccc(C#CCN3CCOCC3)cc2)ccc1OCC(=O)[O-].[Na+] [Form 1, sodium (E)-2-(4-((3-(4-fluorophenyl)-3-(4-(3-morpholinoprop-1-yn-1-yl)phenyl)allyl)oxy)-2-methylphenoxy)acetate] | time to complete conversion to Form 2 ([3]; stability chamber at 25° C./97% RH, 4 g): 4 weeks |
| – | – | – | – | – | Cc1cc(OC/C=C(/c2ccc(F)cc2)c2ccc(C#CCN3CCOCC3)cc2)ccc1OCC(=O)[O-].[Na+] [amorphous, sodium (E)-2-(4-((3-(4-fluorophenyl)-3-(4-(3-morpholinoprop-1-yn-1-yl)phenyl)allyl)oxy)-2-methylphenoxy)acetate] | change in XRPD after storage ([3]; ambient storage conditions for 24 hours, 48 hours, 7 days, or 10 days): no change; change in XRPD after storage ([3]; static storage of 40° C./75% RH for 10 days): no change |
| – | – | – | – | – | Cc1cc(SCc2sc(-c3ccc(C(F)(F)F)cc3)nc2C)ccc1OCC(=O)O [GW1516] | energy substrate usage (mice; 8 weeks treatment): a clear shift in energy substrate usage from glucose to fatty acid oxidation; physical performance (mice; in combination with exercise, 4 weeks): enhanced physical performance |
| ~27% | Unchanged (Pattern 9) | – | – | – | Cc1cc(OC/C=C(/c2ccc(F)cc2)c2ccc(C#CCN3CCOCC3)cc2)ccc1OCC(=O)[O-].[Na+] [Pattern 9, sodium (E)-2-(4-((3-(4-fluorophenyl)-3-(4-(3-morpholinoprop-1-yn-1-yl)phenyl)allyl)oxy)-2-methylphenoxy)acetate] | – |
| ~23% | Form 2 | – | Form 2 | Form 1 | Cc1cc(OC/C=C(/c2ccc(F)cc2)c2ccc(C#CCN3CCOCC3)cc2)ccc1OCC(=O)[O-].[Na+] [Form 4, sodium (E)-2-(4-((3-(4-fluorophenyl)-3-(4-(3-morpholinoprop-1-yn-1-yl)phenyl)allyl)oxy)-2-methylphenoxy)acetate] | XRPD after heating [4]: unchanged XRPD |
| ~25% | Unchanged (Form 2) | – | Unchanged (Form 2) | Unchanged (Form 2) | Cc1cc(OC/C=C(/c2ccc(F)cc2)c2ccc(C#CCN3CCOCC3)cc2)ccc1OCC(=O)[O-].[Na+] [Form 2, sodium (E)-2-(4-((3-(4-fluorophenyl)-3-(4-(3-morpholinoprop-1-yn-1-yl)phenyl)allyl)oxy)-2-methylphenoxy)acetate] | time to complete conversion to Pattern 9 ([2]; vacuum oven at RT): 4 days |
| – | – | converts to Form 1 | – | – | Cc1cc(OC/C=C(/c2ccc(F)cc2)c2ccc(C#CCN3CCOCC3)cc2)ccc1OCC(=O)[O-].[Na+] [Pattern 8, sodium (E)-2-(4-((3-(4-fluorophenyl)-3-(4-(3-morpholinoprop-1-yn-1-yl)phenyl)allyl)oxy)-2-methylphenoxy)acetate] | – |
| ~9.0% | Form 1 | converts to Form 1 | – | Form 1 | Cc1cc(OC/C=C(/c2ccc(F)cc2)c2ccc(C#CCN3CCOCC3)cc2)ccc1OCC(=O)[O-].[Na+] [Form 3, sodium (E)-2-(4-((3-(4-fluorophenyl)-3-(4-(3-morpholinoprop-1-yn-1-yl)phenyl)allyl)oxy)-2-methylphenoxy)acetate] | solid form stability on standing ([2]; standing in ambient conditions): converts to Form 1 |
| – | – | – | – | – | Cc1cc(OC/C=C(/c2ccc(F)cc2)c2ccc(C#CCN3CCOCC3)cc2)ccc1OCC(=O)[O-].[Na+] [Pattern 5, sodium (E)-2-(4-((3-(4-fluorophenyl)-3-(4-(3-morpholinoprop-1-yn-1-yl)phenyl)allyl)oxy)-2-methylphenoxy)acetate] | solid form stability [2]: unstable |
